Results published in article PMC5015098, “Purification, characterization, cytotoxicity and anticancer activities of L-asparaginase, anti-colon cancer protein, from the newly isolated alkaliphilic Streptomyces fradiae NEAE-82” (Scientific Reports, 2016).

Tested on: T1, L-asparaginase
T1 construct: gene EC 3.5.1.1
Conditions: 0.05 M Tris-HCl pH 8.6, 37 °C, 30 min (standard assay)

Question: With `NC(=O)C[C@H](N)C(=O)O` [L-asparagine] as the compound, how does the Km read?
Answer: 10.1 mM
